Consider 14 compounds from ChEMBL document CHEMBL1201862, “PubChem BioAssay data set” (2004).

Holding throughout (test): inhibition of tumour cell growth, NCI panel, 48 h
Experiment [1] relates to OVCAR-5.
Experiment [2] has as its system SNB-19.
The test system of experiment [3] is NCI-H522.
For experiment [4], the system named is COLO 205.
Experiment [5] concerns A498.
In experiment [6] the test system is M14.
In experiment [7] the test system is RXF 393.
The test system of experiment [8] is UACC-257.
For experiment [9], the system named is NCI-H226.
In experiment [10] the test system is SK-MEL-5.
The subject of experiment [11] is HCT-15.
Experiment [12] deals with SK-MEL-28.
The subject of experiment [13] is HOP-92.
Experiment [14] deals with U-251.
Experiment [15] relates to HT-29.
For experiment [16], the system named is CCRF-CEM.

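Following 48 hours of exposure in 96-well plates, responses at five concentrations were used to interpolate endpoints linearly. The concentration for 50% growth inhibition is given as GI50.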 The source made the active and inactive calls. Rule as the data show it: active = GI50 up to about 1.1 µM and inactive = higher. Some results are limits rather than exact numbers.

With `CCCCNC(=O)C1C2CCC(O2)C1C(=O)O` (centres undefined), the GI50 in experiment [1] was > 100 µM (inactive); in experiment [2] it was 23.7 µM (inactive); in [3], 18.9 µM (inactive); in experiment [4], 16.6 µM (inactive); in [5] it was 12.7 µM (inactive); in experiment [6], 14.2 µM (inactive). The GI50 in experiment [7] is 2.07 µM (inactive); in experiment [8], 22.8 µM (inactive); in [9], 19 µM (inactive); in [10], 20.2 µM (inactive); in [11], 23.7 µM; in experiment [12] it was 28 µM (inactive). Further, the GI50 is 12 µM (inactive) in experiment [13], 13.6 µM (inactive) in experiment [14] and 23.1 µM (inactive) in experiment [15].
Consider `CCOC(=O)C1Nc2ccccc2[C@H]2OCC[C@@H]12` (some centres undefined), for which the GI50 in [1], in experiment [2], in experiment [3], in experiment [4], in [5] and in experiment [6] was > 100 µM (inactive) each time. The GI50 in experiment [7] was > 100 µM (inactive); in experiment [8] it was > 100 µM (inactive); in experiment [9], > 100 µM (inactive); in [10], > 100 µM (inactive); in [11], over 100 µM; in experiment [12], > 100 µM (inactive). In addition, the GI50 in [16], in [14] and in experiment [15] was > 100 µM (inactive) each time.
With `COc1ccc(NC(=O)CC(=O)N/N=C/c2ccc(N(CCC#N)S(=O)(=O)c3ccccc3)cc2)cc1`, the GI50 in experiment [1], in [2], in experiment [3], in [4], in [6] and in experiment [8] was > 100 µM (inactive) throughout. The GI50 is > 100 µM (inactive) in experiment [9]; > 100 µM (inactive) in experiment [10]; over 100 µM in experiment [11]; > 100 µM (inactive) in [12]; > 100 µM (inactive) in experiment [13]; > 100 µM (inactive) in [16]. Also, the GI50 in [14] and in experiment [15] was > 100 µM (inactive) in each case.
On to `COC(=O)CC(C(C(=O)OCc1ccccc1)C(C)O)N1C(=O)OC(c2ccccc2)C1c1ccccc1` (centres undefined), for which the GI50 in experiment [2], in experiment [4], in [5], in experiment [6], in experiment [7] and in experiment [8] was > 100 µM (inactive) in each case. Further, the GI50 in experiment [9] was > 100 µM (inactive); in experiment [10], 74 µM (inactive); in [11], over 100 µM; in [12], > 100 µM (inactive); in experiment [16], > 100 µM (inactive); in experiment [14], > 100 µM (inactive). Moreover, the GI50 in experiment [15] was > 100 µM (inactive).
Turning to `O=C1Nc2ccc(Br)cc2/C1=N/Nc1ccc([N+](=O)[O-])cc1`, the GI50 is 19.3 µM (inactive) in [2]; 31.3 µM (inactive) in experiment [3]; 27.2 µM (inactive) in experiment [4]; 20.7 µM (inactive) in experiment [5]; 23.6 µM (inactive) in [6]; 19.5 µM (inactive) in experiment [7]. Also, the GI50 was 20.3 µM (inactive) in experiment [8]; 18 µM (inactive) in [9]; 25 µM (inactive) in experiment [10]; 27.2 µM in experiment [11]; 16.8 µM (inactive) in experiment [12]; 13.6 µM (inactive) in experiment [13]. In addition, the GI50 is 33 µM (inactive) in experiment [16], 18.7 µM (inactive) in [14] and 57.9 µM (inactive) in [15].
`Cc1ccc(S(=O)(=O)c2c(N)c3nccn3c3nc4ccccc4nc23)cc1`: the GI50 in experiment [1], in experiment [2], in experiment [3], in experiment [4], in experiment [6] and in experiment [8] was > 100 µM (inactive) throughout. Besides, the GI50 in [10] was > 100 µM (inactive); in [11] it was over 100 µM; in [12], > 100 µM (inactive); in experiment [13], > 100 µM (inactive); in experiment [16] it was > 100 µM (inactive); in [14] it was > 100 µM (inactive).
`COC(=O)CC(=O)C[P+](c1ccccc1)(c1ccccc1)c1ccccc1`: the GI50 in [2] is > 218 µM (inactive); in experiment [3] it was 37.7 µM (inactive); in [4], 168 µM (inactive); in experiment [7], > 218 µM (inactive); in [8] it was 114 µM (inactive); in [9], 180 µM (inactive). The GI50 in experiment [10] is 158 µM (inactive); in [11] it was 56.5 µM; in [12], 196 µM (inactive); in [13], 102 µM (inactive); in experiment [16], 55.3 µM (inactive); in experiment [14] it was > 218 µM (inactive). The GI50 in [15] is 121 µM (inactive).
Turning to `O=C1c2ccccc2C2(O)Oc3cccc(O)c3C12O` (centres undefined), the GI50 in [1], in experiment [2], in experiment [3], in experiment [4], in [5] and in experiment [6] was > 100 µM (inactive) each time. For the same compound, the GI50 in experiment [8] was > 100 µM (inactive); in experiment [9], > 100 µM (inactive); in experiment [10], > 100 µM (inactive); in [11], over 100 µM; in experiment [12] it was > 100 µM (inactive); in experiment [13], > 100 µM (inactive). In addition, the GI50 in experiment [16], in experiment [14] and in experiment [15] was > 100 µM (inactive) in each case.
Regarding `COc1ccc2nc3cc(Cl)ccc3c(NCCC(=O)OCC(O)C(O)C(O[C@H](C)C(=O)NC(C)C(=O)NC(CCC(N)=O)C(=O)OCc3ccccc3)C(C=O)NC(C)=O)c2c1` (some centres undefined), the GI50 in [1] is 23.8 µM (inactive); in experiment [2], 24.7 µM (inactive); in experiment [3], 14.5 µM (inactive); in experiment [4] it was 18.3 µM (inactive); in experiment [5], 21 µM (inactive); in experiment [6], 19.5 µM (inactive). For the same compound, the GI50 in experiment [8] is 95.7 µM (inactive); in experiment [9], 22.5 µM (inactive); in [10], 16.6 µM (inactive); in [11], 20.7 µM; in experiment [12], 17.7 µM (inactive); in experiment [13], 17.8 µM (inactive). In addition, the GI50 in experiment [16] was 23.2 µM (inactive); in [14] it was 18.2 µM (inactive); in [15], 17.8 µM (inactive).
As for `CSc1nc2c(nc(N)n2C2OCC(O)C(O)C2O)c(=O)n1C` (centres undefined), the GI50 in [2], in experiment [3], in experiment [4], in experiment [5], in [6] and in experiment [7] was > 100 µM (inactive) each time. Further, the GI50 in experiment [8], in experiment [9], in [10], in experiment [12], in experiment [13] and in [16] was > 100 µM (inactive) each time. In addition, the GI50 in experiment [14] and in experiment [15] was > 100 µM (inactive) in each case.
Take `O=C1CNNC(Cn2nc(-c3ccccc3)c3ccccc3c2=O)=N1`: the GI50 in experiment [1], in experiment [2], in experiment [3], in experiment [4], in [5] and in experiment [6] was > 100 µM (inactive) in each case. Moreover, the GI50 in experiment [8] is > 100 µM (inactive); in [9] it was > 100 µM (inactive); in experiment [10], > 100 µM (inactive); in experiment [11], over 100 µM; in experiment [12], > 100 µM (inactive); in [13], > 100 µM (inactive). The GI50 in [16], in [14] and in [15] was > 100 µM (inactive) each time.
`COc1ccccc1NC(=O)c1nc2ccc([N+](=O)[O-])cc2nc1C`: the GI50 in experiment [1] was > 100 µM (inactive); in [2] it was > 100 µM (inactive); in [3] it was 57.8 µM (inactive); in experiment [4], > 100 µM (inactive); in experiment [5] it was > 100 µM (inactive); in [6], > 100 µM (inactive). For the same compound, the GI50 in experiment [8] is > 100 µM (inactive); in [9], 99.3 µM (inactive); in experiment [10], > 100 µM (inactive); in [11] it was over 100 µM; in experiment [12], > 100 µM (inactive); in experiment [13], 51.8 µM (inactive). The GI50 in [16], in [14] and in experiment [15] was > 100 µM (inactive) each time.
With `COc1ccc2oc(C(=O)O)c3c2c1CCC3CCC(=O)O` (centres undefined), the GI50 in experiment [1], in [2], in [3], in [4], in [5] and in [7] was > 100 µM (inactive) throughout. Also, the GI50 in experiment [8], in experiment [10], in experiment [12], in experiment [13], in experiment [16] and in experiment [14] was > 100 µM (inactive) throughout. In addition, in experiment [15], the GI50 was > 100 µM (inactive).
Consider `O=C(Nc1cc(Cl)c(Cl)cc1Cl)C(=O)C(C(=O)c1ccc2ccccc2c1)C1OC(=O)c2ccccc21` (centres undefined), for which the GI50 in experiment [1] was 16.5 µM (inactive); in [2] it was 11.6 µM (inactive); in experiment [3], 12 µM (inactive); in [4] it was 17 µM (inactive); in [5], 12 µM (inactive); in [6] it was 21.8 µM (inactive). Moreover, the GI50 in [7] was 3.95 µM (inactive); in experiment [8], 14.4 µM (inactive); in experiment [9], 2.65 µM (inactive); in experiment [10], 11.8 µM (inactive); in [11], 17.3 µM; in experiment [12], 10.3 µM (inactive). Moreover, the GI50 in experiment [13] was 1.96 µM (inactive); in experiment [14], 4.47 µM (inactive); in experiment [15], 18.2 µM (inactive).
